Source: patent publication US20230312652A1, “NOVEL PEPTIDES AND USES THEREOF” (Aarhus Universitet, priority 2020, published 2023)
Where a SMILES comes first, the peptide text is derived from it.

Tests used:
CREB = CREB activation (phosphorylation on serine 133) in wild-type cortical neurons, western blotting; assay type: cell-based, mouse; settings: 20 minutes, 7 days in vitro
Procedure: (§1) To assess the ability of peptides P1, P2 and P6, respectively, to activate transcription factor CREB, cortical neurons were isolated from p0 wild-type mice and seeded in a density of 500.000 per well. After 7 days in vitro the neurons were stimulated with the different peptide variants at 1 uM in neurobasal A media and incubated at 37° C. and 5% C02 for 20 minutes. Hereafter, the neurons were lysed in lysis buffer containing DTT and cOmplete cocktail protease inhibitor and subsequently sonicated to disrupt the nuclear membrane. The phosphorylation of CREB on serine 133 was validated by western blotting normalized to beta-actin. As control, cells were stimulated with a scrambled peptide (Scr). Student's t-test was used for statistical analysis.
as §1, with “The” for “To assess the”, “peptide P1” for “peptides P1, P2”, “a linear peptide analog of P1 with acetylated N- and amidated C-terminals (referred to as LP1)” for “P6, respectively,”, “CREB was assessed. Cortical” for “CREB, cortical”, “20 nM” for “1 uM”, “CO2” for “C02”

hERG potassium channels = molecular target: T1, hERG potassium channels (Homo sapiens, UniProt Q12809); test: hERG inhibition, manual patch-clamp in CHO cell line; assay type: cell-based; settings: 0.1-30 uM, room temperature
T1 construct: expressed in transfected cells
T1 sequence (Q12809 whole entry): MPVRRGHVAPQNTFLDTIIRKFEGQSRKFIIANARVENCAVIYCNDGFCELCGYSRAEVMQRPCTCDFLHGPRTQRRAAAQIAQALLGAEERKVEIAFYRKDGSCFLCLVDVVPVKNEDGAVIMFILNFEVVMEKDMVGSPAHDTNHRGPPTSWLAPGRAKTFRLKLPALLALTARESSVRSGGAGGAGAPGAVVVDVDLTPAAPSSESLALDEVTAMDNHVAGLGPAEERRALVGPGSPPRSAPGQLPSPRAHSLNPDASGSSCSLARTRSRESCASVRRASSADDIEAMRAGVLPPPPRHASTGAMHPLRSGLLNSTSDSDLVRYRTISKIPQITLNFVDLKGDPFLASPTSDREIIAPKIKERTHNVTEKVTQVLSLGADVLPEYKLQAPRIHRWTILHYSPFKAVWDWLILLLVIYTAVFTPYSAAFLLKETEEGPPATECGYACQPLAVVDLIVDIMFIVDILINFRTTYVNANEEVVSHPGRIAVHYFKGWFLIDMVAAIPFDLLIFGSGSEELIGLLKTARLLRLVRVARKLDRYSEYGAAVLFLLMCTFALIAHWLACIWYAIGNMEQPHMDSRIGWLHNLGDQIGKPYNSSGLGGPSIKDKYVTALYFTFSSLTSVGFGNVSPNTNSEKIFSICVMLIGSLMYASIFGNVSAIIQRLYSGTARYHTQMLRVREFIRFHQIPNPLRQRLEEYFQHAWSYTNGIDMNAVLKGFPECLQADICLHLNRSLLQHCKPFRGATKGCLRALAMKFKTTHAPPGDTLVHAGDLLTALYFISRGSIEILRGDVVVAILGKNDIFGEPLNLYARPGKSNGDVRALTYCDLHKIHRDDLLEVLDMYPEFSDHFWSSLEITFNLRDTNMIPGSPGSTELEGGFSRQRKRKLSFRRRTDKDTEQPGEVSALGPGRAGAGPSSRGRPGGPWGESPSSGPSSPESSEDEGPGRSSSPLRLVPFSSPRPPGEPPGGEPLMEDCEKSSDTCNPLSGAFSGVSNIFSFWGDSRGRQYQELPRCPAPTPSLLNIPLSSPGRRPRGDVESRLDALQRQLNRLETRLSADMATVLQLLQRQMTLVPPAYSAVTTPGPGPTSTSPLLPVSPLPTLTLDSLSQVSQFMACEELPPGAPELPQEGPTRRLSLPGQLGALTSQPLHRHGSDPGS
Procedure: P1 (0.1-30 uM) was evaluated in vitro in a concentration-response (relationship of the effect on electric current passing through hERG (human ether-à-go-go-related gene) potassium channels (a surrogate for IKr, the rapidly activating, delayed rectifier cardiac potassium current) stably expressed in a CHO cell line using a manual patch-clamp technique.
The hERG current was recorded at room temperature using whole-cell patch-clamp techniques. Output signals from the patch-clamp amplifier were digitized and low-pass filtered at 2.9 kHz. The recording was controlled with Patchmaster Pro software. The recording chamber with cells seeded was mounted on an inverted microscope stage. A cell in the recording chamber was randomly picked up for testing. The cell was continuously perfused from the perfusion system. A micropipette filled with ICS was used as recording electrode in the manual patch-clamp study. The micropipette was prepared on the day of the patchclamp experiment using glass capillaries (GC150TF-10, Harvard Apparatus Co., UK). From the holding potential of −80 mV, the voltage was increased to +60 mV for 850 ms to open the hERG channels. After that, the voltage was decreased to −50 mV for 1275 ms, causing a “rebound” or tail current, the peak tail current was measured and collected for data analysis. Finally, the voltage was decreased to the holding potential (−80 mV). […]

[1] = Mouse brain homogenate binding; assay type: in vitro ADME; settings: 2 μM
Procedure: Mouse brain homogenate was incubated with 2 μM of P1 or 7-Ethoxycoumarin (positive control of degradation). Enzymatic reactions were stopped at timepoints between 0-240 min and samples analysed by LCMS. For test with protease inhibitors, brain homogenate was pre-incubated for 30 minutes with protease inhibitors prior to incubation with P1. For brain homogenate binding, 2 μM of P1 or propranolol (positive control) were added to mouse brain homogenate and incubated at 37° C. for 30 minutes. To prepare the protein-free samples (F samples) to be used for unbound determination, an aliquot of the pre-incubated matrix containing test compound or control compound was transferred to ultracentrifuge tubes and subjected to ultracentrifugation at 37° C., 35000 rpm for 4 hrs. In parallel, brain homogenate was incubated for 4.5 hrs to determine total levels after incubation.

[2] = test system: BDNF, PGC1a and TFEB in GM04719 fibroblasts; test: BDNF, PGC1a and TFEB levels in HD patient-derived fibroblasts, western blotting; assay type: cell-based, human; settings: 1 uM
Procedure: To validate the therapeutic potential of P1 in Huntington's Disease, we likewise assessed whether P1 could increase the three distinct pathways in fibroblasts derived from a HD patient. The fibroblasts were bought from Coriell Biobank. The patient-derived fibroblasts, named GM04719, was sampled from a person with clinical onset […]. The patient has 44-CAG repeats in their HTT-gene.
To assess target engagement by P1, 30,000-50,000 fibroblasts were seeded per well in a 96-well plate. The following day, the cells were treated with 1 uM of P1 and incubated at 37° C. and 5% CO2 at timepoints between 2-24 hours. Hereafter, the cells were lysed in RIPA lysis buffer containing cOmplete cocktail protease inhibitor. BDNF, PGC1a and TFEB levels were analysed by western blotting normalized to beta-actin.

TDP-43(ΔNLS)-YFP = test: Clearance of cytoplasmic TDP-43 in HEK293 cells, western blotting; assay type: cell-based; settings: dose-range of P1, 24 hours
Procedure: 100,000 HEK293T cells were seeded in a 24-well plate per well. At 60% confluency the cells were transfected with a form of TDP-43-YFP with a mutated nuclear localization signal (TDP-43(ΔNLS)-YFP) to restrict TDP-43 to the cytosol, which is the pathogenic localization in frontotemporal dementia^67. After 24 hours, the cells were treated with a dose-range of peptide P1 and further incubated for another 24 hours. The cells were subsequently lysed in lysis buffer containing DTT and cOmplete cocktail protease inhibitor. The levels of TDP-43 were validated by western blotting using an anti-GFP antibody and the levels were normalized to beta-actin.

[3] = 2 μM, up to 60 minutes
Procedure: S9 fractions from 5 different species were incubated with 2 μM P1 (SEQ ID NO: 1) or 7-Ethoxycoumarin (positive control for clearance) and necessary reactants for up to 60 minutes at 37° C. Reactions were stopped and samples were analysed by LCMS.

[4] = test system: pCREB, TFEB, LAMP1, p62/SQSTM1, PGRN, PGC1a; test: Pathway engagement in striatum of wild-type mice after SC injection, western blotting; assay type: in vivo, mouse; settings: 13 mg/kg SC
Procedure: Wild-type mice were injected with 13 mg/kg of P1 (SEQ ID NO: 1) subcutaneously in 4.38 mM L-His, 140 mM NaCl, 0.2% Tween-20 and 1500 IU hyaluronidase (pH 6.15). The mice were sacrificed at timepoints between 2-8 hours after injection. Striatal tissue was isolated and the tissue was lysed using a TissueLyser in RIPA lysis buffer containing cOmplete and phosSTOP. Levels of pCREB, TFEB, downstream lysosomal gene products LAMP1, p62/SQSTM1, PGRN and mitochondrial master regulator PGC1a were validated by western blotting. All proteins were normalized to beta-actin levels.

CSCC[C@@H]1NC(=O)[C@H](C(C)C)NC(=O)[C@H](CC(=O)O)NC(=O)[C@H](CCC(=O)O)NC(=O)[C@H](CCC(=O)O)NC(=O)[C@H](Cc2c[nH]cn2)NC(=O)[C@H](CCC(=O)O)NC(=O)[C@H](C(C)C)NC(=O)[C@@H]2CCCN2C(=O)[C@H](CCC(=O)O)NC(=O)[C@H]([C@@H](C)O)NC1=O [Peptide P1, [MTEPVEHEEDV]] (cyclo(MTEPVEHEEDV))
activation of CREB (phosphorylation on serine 133) compared to scrambled peptide (CREB; 20 nM): activated CREB
activation of CREB (phosphorylation on serine 133) compared to scrambled peptide (CREB; 1 uM): markedly activated CREB
effect on hERG current (hERG potassium channels): no effect on hERG current
brain homogenate binding [1]: less than 20%
PGC1a level ([2]; 6 hours of treatment): upregulated
TFEB level ([2]; 6 hours of treatment): upregulated
BDNF level ([2]; after 24 hours): significantly upregulated
cytoplasmic TDP-43 levels (TDP-43(ΔNLS)-YFP): decreased the pathogenic cytoplasmic form of TDP-43
clearance and stability in liver S9 fractions ([3]; 5 different species): low clearance and high stability
stability in mouse and human S9 liver fractions ([3]; mouse and human): some stability is lost
pCREB in striatum ([4]; after 2 hours): significantly activates CREB
pCREB in striatum ([4]; at 4 hours): no significant effect
PGC1a in striatum ([4]; at 6 hours): significantly increased
PGRN in striatum ([4]; at 6 hours): significantly increased
p62/SQSTM1 levels in striatum (autophagic flux) ([4]; at 8 hours following injection): significantly lowered
LAMP1 in striatum ([4]; between 2-4 hours): significantly increased
TFEB in striatum ([4]; between 2-4 hours): significantly increased
